Source: patent publication US20080279961A1, “TELOMERE TARGETING AGENTS AS STEM CELLS DIRECTED TREATMENTS” (priority 2007, published 2008)
Entries after “also recorded” stand apart in the source; their conditions may differ.

Experiments:
[1] = system: normal monkey bone marrow stem cells; assay: methylcellulose colony growth of bone marrow stem cells; type: cell-based; details: low drug concentrations
Method: For the monkey bone marrow and the human cord blood, methylcellulose from StemCell Technologies (Vancouver) was used to grow the stem cells as colonies. […] Cancer tissues are composed of various cell types, tumor cells, stromal fibroblasts, blood vessels, inflammatory cells, and adipocytes, all of which can carry over into single cell suspensions that are seeded into soft agar after tissue digestion. To examine whether tumor stem cells secrete cytokines that support their growth of enforce differentiation, the expression of 6 cytokines found in the supernatant of clonogenic assays was evaluated. Ultrasensitive immunoassay procedures based on the ELISA (enzyme linked immuno absorbent assay) technology were employed for the measurement of VEGF, TNF-alpha, GMCSF, GCSF IL4 and IL6. The assays were performed by the Cytokine Laboratory in the VA Hospital at the University of Maryland Baltimore and data provided as optical density readouts that were converted relative to a standard into pg/ml absolute cytokine values. The IL4 and 6 measurements were all negative; however VEGF, TNF-alpha, GMCSF and GCSF yielded interesting and differential results between tumor and normal stem cells. While cytokine levels decreased after RHPS4 treatment in tumor stem cell assays, they increased in normal stem cell cultures.

[2] = system: Saos-2, HEK293T, UXF 1138, H460; assay: MTT assay in cell lines with short and long telomeres; type: cell-based, human
[3] = system: UXF1138L tumors; assay: atypical mitoses counted in xenograft sections; type: in vivo, nude mice
Method: Upon termination of the experiments, tumors from 3 mice per group were excised and immediately fixed in 10% PBS buffered formalin for 24 hours followed by routine paraffin embedding procedures (Burger et al. 2005).
Five-micrometer paraffin sections were cut, dewaxed, and antigen retrieval done in citrate buffer (pH 6.0) in the microwave for 30 minutes. Sections were then treated with methanol/3% hydrogen peroxide to remove endogenous peroxidase and blocked with 10% normal goat serum in PBS and stained. PBS was used as washing buffer. Cells were incubated overnight at 4° C. with a monoclonal anti-hTERT antibody (class IgG2a, kappa, Novacastra, Newcastle, UK) diluted 1:40 in PBS. Mouse immunoglobulin G2a isotype control (Santa Cruz) was used as negative control. hTERT-specific immunoperoxidase staining was developed using the DAKO Envision+ system (Envision 3,3V-diaminobenzidine Plus kit mouse, DAKO Cytomation). […] Sections were viewed and evaluated by two independent pathologists. Mean numbers of atypical mitoses were counted in control and treated tissues from 3 tumors (4 fields of 250 cells per tumor) for the 3 groups (Burger et al. 2005). Box plots were generated using SigmaPlot version 10 software and statistical significance between treatments calculated in SigmaPlot using the Student T-test.

## COS(=O)(=O)[O-].Cc1cc2c3c([n+](C)c4ccc(F)cc4c3c1)-c1cc(F)ccc1N2C [RHPS4, 3,11-difluoro-6,8,13-trimethyl-8H-quino[4,3,2-kl]acridinium methosulfate]
[1]
  growth of normal monkey bone marrow stem cells: induces the growth
[2]
  difference in inhibitory concentrations 50% between cell lines with short and long telomeres: two log-fold
[3]; 5 mg/kg/d p.o.
  mitotic abnormalities compared to vehicle control: significant induction of mitotic abnormalities; also recorded: increase in mitotic abnormalities
[3]; UXF1138L tumors passage 4, control 0.35
  atypical mitosis, mean number: 1.25±0.19
